Here are results for one compound from PMC12123601, “Light-Induced, Lysine-Targeting Irreversible Covalent Inhibition of the Human Oxygen Sensing Hydroxylase Factor Inhibiting HIF (FIH)” (Journal of the American Chemical Society, 2025).

Test [1] addresses T1, PHD2 (Homo sapiens, UniProt Q9GZT9).
T1 construct: endogenous in cells; host or cells: Hep3B (SCSP-5045)
Description: CETSA in Hep3B cells detecting PHD2 engagement. As to conditions: 50 μM, 12-48 h after 30 min light activation. The format is cell-based. As for the experimental part:
To investigate potential cellular target engagement of NBA-ZG-2291 with FIH, we performed a time-dependent cellular thermal shift assay (CETSA) using Hep3B cells. The results imply that, after 30 min of light activation (365 nm, 16 W), NBA-ZG-2291 effectively stabilizes FIH with a ΔT m of about 9 °C after incubation for 12–48 h (Figure A), indicating sustained engagement with FIH. […] We also performed Western blotting to examine the protein levels of both HIF-1α and HIF-2α in control and NBA-ZG-2291-treated Hep3B cells.
Figure S11. The CETSA assay detecting PHD2 engagement was carried out with Hep3B cells grown in the presence of NBA-ZG-2291 (50 µM) for 12-48 h after 30 minutes of light activation (365 nm, 16W). The intensity of the bands for grayscale analysis was referenced to the starting temperature (37 °C). α-Actinin was the sample loading control. n = 2; mean ± SD. The uncropped blot is […]
(1 picture or pasted object on this page, not shown here)
3.4 Intact protein mass spectrometry […]
The process of customizing non-standard residues (NBA-ZG-2291 modified Lys106) in the amber14sb force field involved the following steps: First, the molecular structure of NBA-ZG-2291 was obtained and its topology was generated. […] The molecular charges were then calculated using the RESP method, and the topology file was updated with these charge values. […]

In test [2] the test system is 3T3-L1-derived adipocytes. Description: Lipid homeostasis in 3T3-L1-derived adipocytes (TG level, Oil Red O staining). Format: cell-based. As for the experimental part: 5 NBA-ZG-2991 sustainably engages with FIH and regulates the expression of FIH-dependent HIF target gene EGLN3 in Hep3B cells. (A) The CETSA assay was carried out with Hep3B cells grown in the presence of NBA-ZG-2291 (50 μM) for 12–48 h after 30 min of light activation (365 nm, 16 W). The intensity of the bands for grayscale analysis was referenced to the starting temperature (37 °C). α-Actinin was the sample loading control. n = 2; mean ± SD. […] (E) Correlation heatmap of the NBA-ZG-2291-treated group and the siFIH group by RNA-sequencing analysis. […] The relative fold change with respect to DMSO treated sample is shown (with normalization to HPRT gene levels). Mean ± SEM; n = 3. (G) TG level of NBA-ZG-2291-treated 3T3-L1-derived adipocytes. Mean ± SEM; n = 3. (H) Representative Oil Red O-stained images of the control, ZG-2291-treated, and NBA-ZG-2291-treated 3T3-L1-derived adipocytes. Scale Bar, 30 μm. P values were analyzed by two-way ANOVA comparing with the vehicle/control group (*, P < 0.05; **, P < 0.01; ***, P < 0.001, ****, P < 0.0001). See Methods (Quantitative PCR Analysis of Gene Expression) for assay details. […]

T1 sequence (Q9GZT9 whole entry): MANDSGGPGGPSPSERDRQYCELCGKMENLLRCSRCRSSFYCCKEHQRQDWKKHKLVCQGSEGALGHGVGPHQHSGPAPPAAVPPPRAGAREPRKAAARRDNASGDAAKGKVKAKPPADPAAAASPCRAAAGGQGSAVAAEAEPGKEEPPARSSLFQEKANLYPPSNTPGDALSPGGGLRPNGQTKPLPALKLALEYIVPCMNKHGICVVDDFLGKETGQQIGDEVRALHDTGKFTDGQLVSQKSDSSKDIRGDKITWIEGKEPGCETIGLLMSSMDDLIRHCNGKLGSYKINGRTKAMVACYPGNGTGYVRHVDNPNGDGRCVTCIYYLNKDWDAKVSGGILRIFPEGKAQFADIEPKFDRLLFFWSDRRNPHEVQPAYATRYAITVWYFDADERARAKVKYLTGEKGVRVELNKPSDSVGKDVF

Turning to `O=C(O)CNC(=O)c1ncc(-c2cc(-c3ccc(CO)c([N+](=O)[O-])c3)no2)cc1O` [NBA-ZG-2291], the “Effect on stability of PHD2 in cells (CETSA)” value in test [1] is given as “not observed to affect the stability of PHD2”. In test [2], the “Cellular triglyceride (TG) levels” value is reported as “significantly improved cellular triglyceride levels”. Further, in test [2] (compared with control cells), the “Lipid droplet accumulation (Oil Red O staining)” value was “reduced lipid droplet accumulation”.
